# Measurements from patent US4277474A, “Treatment of allergic symptoms with propanone derivatives” (Nippon Zoki Pharmaceutical Co., Ltd., priority 1978, dated 1981).
# Where a name gives a salt, the structure may show the parent alone. Read-outs that look alike come from different tables or passages of the source.
# Legend:
# Peritoneal cavity cells = assay: Inhibitory effect on histamine release from sensitized peritoneal cavity cells; format: cell-based, rat (Wistar-strain); design: Released histamine, fluorescence intensity / Residual histamine, fluorescence intensity / Total histamine, fluorescence intensity: unit not given here; conditions: for Net release rate: release not caused by antigen-antibody reaction deducted; for inhibition at 10 µM / inhibition at 50 µM / inhibition at 100 µM / inhibition at 200 µM: Rattus norvegicus; for inhibition at 50 µM / inhibition at 100 µM: read-out: Inhibitory effect on histamine release; for inhibition at 200 µM: 0.2 mM
# Procedure: The inhibitory effect on histamine release of the compounds according to the present invention was investigated as follows. […] These cells were suspended in a phosphoric acid buffer solution (containing 0.1% of gelatin) and each 0.5 ml portion of this suspension was taken in a polyethylene tube. 1 ml each of solutions of various concentrations of test compound and 0.5 ml of 200 μg/ml of ovalbumin solution were added therein. They were incubated for 20 minutes at 37° C. to measure the histamine release rate. The amount of histamine was measured by a modified Shore method using fluorescence.
# SRS-A = assay: Anti-SRS-A effect on guinea pig's ileum (Magnus method)
# Procedure: The anti-SRS-A effect of the compounds according to the present invention on guinea pig's ileum was measured by Magnus method. […] One minute thereafter, the ileum contraction inhibiting rate (%) was measured with use of 1 ml of 80% ethanol solution of SRS-A (150 mg/ml).
# [1] = Acute toxicity in mice (LD50, Litchfield-Wilcoxon); conditions: mouse, in vivo, ICR male mice
# Procedure: Acute toxicity tests were carried out by intraperitoneal or peroral administration of the compound according to the present invention to groups of 10 ICR-strain male mice (weighing 20 g on the average), and each LD50 value was determined by Litchfield-Wilcoxon Method.
# [2] = 0.05 mM, average ± S.E. of 3 or 4 experiments
SMILES,inhibition at 50 µM (Peritoneal cavity cells; [2]),inhibition at 100 µM (Peritoneal cavity cells; 0.1 mM),ileum contraction inhibiting rate (SRS-A; 10^-4 g/ml),ileum contraction inhibiting rate (SRS-A; 10^-5 g/ml),ileum contraction inhibiting rate (SRS-A; 10^-6 g/ml),also measured
"O=C(O)c1cc(=O)c2c(OCC(O)COc3cccc4oc(C(=O)O)cc(=O)c34)cccc2o1 [DSCG, disodium chromoglicate, reference compound]",29 ± 6.1%,70%,–,–,–,Histamine release rate (Peritoneal cavity cells; 0.01 mM): 36.8%; Net release rate (Peritoneal cavity cells; 0.01 mM): 22.9%; inhibition at 10 µM (Peritoneal cavity cells; 0.01 mM): 30%
"Cc1ccc(C(=O)C(C)CN2CCN(CC(C)C)CC2)cc1.Cl.Cl (stereo not shown) [Example 1, 2,4'-dimethyl-3-(4-isobutylpiperazino)propiophenone dihydrochloride]",–,–,64.7 ± 7.51%,6.7 ± 3.33%,0 ± 0%,–
"CC(CN(C)C)C(=O)c1ccc2ccccc2c1 (stereo not drawn) [Example 3, 2-methyl-3-dimethylamino-β-propionaphthone hydrochloride]",–,–,91.3 ± 3.84%,47.0 ± 9.50%,1.3 ± 0.88%,–
"CC(CN1CCOCC1)C(=O)c1ccc2ccccc2c1 (stereo not drawn) [Example 4, 2-methyl-3-morpholino-β-propionaphthone hydrochloride]",–,–,96.7 ± 3.33%,36.3 ± 14.19%,13.0 ± 12.50%,"LD50 ([1]; ip, intraperitoneal): 190 mg/kg; LD50 ([1]; po, peroral): 540 mg/kg; Histamine release rate (Peritoneal cavity cells; 0.01 mM): 44.2%; Released histamine, fluorescence intensity (Peritoneal cavity cells; 0.01 mM): 212; Residual histamine, fluorescence intensity (Peritoneal cavity cells; 0.01 mM): 268; Total histamine, fluorescence intensity (Peritoneal cavity cells; 0.01 mM): 480; Net release rate (Peritoneal cavity cells; 0.01 mM): 30.3%; inhibition at 10 µM (Peritoneal cavity cells; 0.01 mM): 7.4%"
"CC(CN1CCCC1)C(=O)c1ccc2ccccc2c1 (stereo not drawn) [Example 6, 2-methyl-3-pyrrolidino-β-propionaphthone hydrochloride]",–,48%,100.0 ± 0%,63.0 ± 6.66%,0.3 ± 0.33%,–
"COc1ccc(C(=O)C(C)CN2CCCCC2)cc1OC.Cl (stereo not shown) [Example 7, 3',4'-dimethoxy-2-methyl-3-piperidinopropiophenone hydrochloride]",–,–,85.7 ± 0.67%,8.3 ± 2.85%,1.0 ± 1.00%,–
"CC(CN1CCCCC1)C(=O)c1ccc2c(c1)CCCC2 (stereo not shown) [Example 9, 2-methyl-3-piperidino-5',6',7',8'-tetrahydro-2'-propionaphthone hydrochloride]",–,33.7%,–,–,–,–
"CC1CCCN(CC(C)C(=O)c2ccc3ccccc3c2)C1 (stereo not drawn) [Example 10, 2-methyl-3-(3-methylpiperidino)-β-propionaphthone hydrochloride]",18 ± 5.4%,49.9%,–,–,–,–
"CCN(CC)CC(C)C(=O)c1ccc(C)cc1.Cl (stereo not shown) [Example 11, 2,4'-dimethyl-3-diethylaminopropiophenone hydrochloride]",–,–,68.0 ± 13.05%,0.3 ± 0.33%,3.0 ± 3.00%,–
"Cc1ccc(C(=O)C(C)CN2CCOCC2)cc1.Cl (stereo not shown) [Example 12, 2,4'-dimethyl-3-morpholinopropiophenone hydrochloride]",–,–,69.7 ± 12.13%,20.7 ± 5.61%,8.3 ± 6.89%,–
"Cc1ccc(C(=O)C(C)CN2CCCC2)cc1.Cl (stereo not shown) [Example 13, 2,4'-dimethyl-3-pyrrolidinopropiophenone hydrochloride]",–,–,80.7 ± 6.98%,2.7 ± 2.67%,1.3 ± 1.33%,–
"Cc1ccc(C(=O)C(C)CN2CCN(C)CC2)cc1.Cl.Cl (stereo not shown) [Example 14, 2,4'-dimethyl-3-(4-methylpiperazino)propiophenone dihydrochloride]",–,–,58.0 ± 4.36%,10.3 ± 7.88%,10.3 ± 7.98%,–
"CCN1CCN(CC(C)C(=O)c2ccc(C)cc2)CC1.Cl.Cl (stereo not shown) [Example 15, 2,4'-dimethyl-3-(4-ethylpiperazino)propiophenone dihydrochloride]",–,–,69.7 ± 3.71%,20.7 ± 6.12%,0.3 ± 0.33%,–
"Cc1ccc(C(=O)C(C)CN2CCN(Cc3ccccc3)CC2)cc1 (stereo not shown) [Example 16, 2,4'-dimethyl-3-(4-benzylpiperazino)propiophenone dihydrochloride]",–,–,–,–,–,inhibition at 200 µM (Peritoneal cavity cells): 72.4%
"COc1cc(C(=O)C(C)CN2CCCCC2)ccc1O (stereo not shown) [Example 18, 4'-hydroxy-3'-methoxy-2-methyl-3-piperidinopropiophenone hydrochloride]",–,–,–,–,–,inhibition at 200 µM (Peritoneal cavity cells): 83.7%
"CC(CN1CCCCC1)C(=O)c1cccc2ccccc12 (stereo not drawn) [Example 19, 2-methyl-3-piperidino-α-propionaphthone hydrochloride]",–,–,–,–,–,inhibition at 200 µM (Peritoneal cavity cells): 100%
"CCCCCCc1ccc(C(=O)C(C)CN2CCCCC2)cc1 (stereo not shown) [Example 22, 4'-hexyl-2-methyl-3-piperidinopropiophenone hydrochloride]",82 ± 1.7%,87.2%,–,–,–,–
"CC1CCN(CC(C)C(=O)c2ccc3ccccc3c2)CC1 (stereo not drawn) [Example 23, 2-methyl-3-(4-methylpiperidino)-β-propionaphthone hydrochloride]",21.4 ± 2.4%,65.8%,–,–,–,–

SMILES,inhibition at 50 µM (Peritoneal cavity cells; [2]),inhibition at 100 µM (Peritoneal cavity cells; 0.1 mM),ileum contraction inhibiting rate (SRS-A; 10^-4 g/ml),ileum contraction inhibiting rate (SRS-A; 10^-5 g/ml),ileum contraction inhibiting rate (SRS-A; 10^-6 g/ml),also measured
"Cc1ccc(C(=O)C(C)CN(C)C)cc1.Cl (stereo not shown) [Example 24, 2,4'-dimethyl-3-dimethylaminopropiophenone hydrochloride]",–,–,57.3 ± 5.17%,7.7 ± 3.67%,4.3 ± 2.40%,–
"COc1ccc(C(=O)C(C)CN2CCCCC2)cc1.Cl (stereo not shown) [Example 25, 4'-methoxy-2-methyl-3-piperidinopropiophenone hydrochloride]",–,–,80.3 ± 7.22%,15.0 ± 14.50%,6.7 ± 6.67%,–
"CCOc1ccc(C(=O)C(C)CN2CCCCC2)cc1.Cl (stereo not shown) [Example 26, 4'-ethoxy-2-methyl-3-piperidinopropiophenone hydrochloride]",–,–,86.7 ± 3.84%,12.3 ± 6.69%,6.7 ± 5.24%,–
"Cc1ccc(C(=O)C(CN2CCCCC2)c2ccccc2)cc1 (stereo not shown) [Example 27, 4'-methyl-2-phenyl-3-piperidinopropiophenone hydrochloride]",–,–,–,–,–,inhibition at 200 µM (Peritoneal cavity cells): 78.5%
"CC(CN1CCCCC1C)C(=O)c1ccc2ccccc2c1 (stereo not drawn) [Example 28, 2-methyl-3-(2-methylpiperidino)-β-propionaphthone hydrochloride]",18.5 ± 6.5%,40.7%,–,–,–,–
"CC(CN1CCC(Cc2ccccc2)CC1)C(=O)c1ccc2ccccc2c1 (stereo not drawn) [Example 29, 2-methyl-3-(4-benzylpiperidino)-β-propionaphthone hydrochloride]",61 ± 3.6%,98.7%,–,–,–,–
"Cc1ccc(C(=O)CCN2CCCCC2)cc1C [Example 30, 3',4'-dimethyl-3-piperidinopropiophenone hydrochloride]",19.4 ± 7.8%,50.3%,–,–,–,–
"O=C(CCN1CCCCC1)c1ccc2ccccc2c1 [Example 31, 3-piperidino-β-propionaphthone hydrochloride]",–,–,–,–,–,inhibition at 50 µM (Peritoneal cavity cells): 53.4 ± 9.1%; inhibition at 100 µM (Peritoneal cavity cells): 89.6%
"CCC(CN1CCCCC1)C(=O)c1ccc2ccccc2c1 (stereo not drawn) [Example 32, 2-ethyl-3-piperidino-β-propionaphthone hydrochloride]",27.2 ± 8.1%,42%,–,–,–,–
"CC(CN1CCCCC1)C(=O)c1ccc2c(c1)CCC2 (stereo not shown) [Example 33, 1-(5-indanyl)-2-methyl-3-piperidinopropanone hydrochloride]",14.4 ± 2.6%,–,–,–,–,–
"CCc1ccc(C(=O)C(C)CN2CCCCC2)cc1CC (stereo not shown) [Example 34, 3',4'-diethyl-2-methyl-3-piperidinopropiophenone hydrochloride]",29.1 ± 7.5%,–,–,–,–,–
"CCCc1ccc(C(=O)C(C)CN2CCCCC2)cc1 (stereo not shown) [Example 36, 4'-n-propyl-2-methyl-3-piperidinopropiophenone hydrochloride]",23.6 ± 7.7%,–,–,–,–,–
"COc1ccc2cc(C(=O)CCN3CCCCC3)ccc2c1 [Example 39, 6'-methoxy-3-piperidino-2'-propionaphthone hydrochloride]",–,85%,–,–,–,–
"COc1ccc2cc(C(=O)C(C)CN3CCCCC3)ccc2c1 (stereo not shown) [Example 40, 6'-methoxy-2-methyl-3-piperidino-2'-propionaphthone hydrochloride]",–,84%,–,–,–,–
"COc1ccc(C(=O)C(C)CN2CCCCC2)cc1Cl (stereo not shown) [Example 49, 3'-chloro-4'-methoxy-2-methyl-3-piperidinopropiophenone hydrochloride]",–,38%,–,–,–,–
"CC(CN1CCCCC1)C(=O)c1ccc(Cl)c(Cl)c1 (stereo not shown) [Example 50, 3',4'-dichloro-2-methyl-3-piperidinopropiophenone hydrochloride]",–,73%,–,–,–,–
"Cc1ccc2cc(C(=O)C(C)CN3CCCCC3)ccc2c1 (stereo not shown) [Example 51, 2,6'-dimethyl-3-piperidino-2'-propionaphthone hydrochloride]",–,37%,–,–,–,–
